Tested on: 324938-238-R-J1-PDC complex spheroid growth, % test/control
Experiment: Anticancer human tumor 324938-238-R-J1-PDC patient-derived bladder carcinoma cell line growth inhibition [AhR]
Conditions: for IC50: curve of first compound; for viability, T/C: stronger effect = lower value
How it was run: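 Agents were dosed in half-log steps down from roughly clinical Cmax, or from 10 microM where Cmax was unknown, alone and with AhR antagonists. Read-out: percent test/control growth of tumor spheroids containing HUVEC and MSC stromal cells.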

[1] = second compound 0.1 µM, first compound 0.000949 µM
[2] = second compound 0.1 µM, first compound 0.003 µM
[3] = second compound 0.1 µM, first compound 0.00949 µM
[4] = second compound 0.1 µM, first compound 0.03 µM
[5] = second compound 0.1 µM, first compound 0.0949 µM
[6] = second compound 0.1 µM, first compound 0.3 µM
[7] = second compound 0.316 µM, first compound 0.000949 µM
[8] = second compound 0.316 µM, first compound 0.003 µM
[9] = second compound 0.316 µM, first compound 0.00949 µM
[10] = second compound 0.316 µM, first compound 0.03 µM
[11] = second compound 0.316 µM, first compound 0.0949 µM
[12] = second compound 0.316 µM, first compound 0.3 µM
[13] = second compound 1 µM, first compound 0.000949 µM
[14] = second compound 1 µM, first compound 0.003 µM
[15] = second compound 1 µM, first compound 0.00949 µM
[16] = second compound 1 µM, first compound 0.03 µM
[17] = second compound 1 µM, first compound 0.0949 µM
[18] = second compound 1 µM, first compound 0.3 µM
[19] = second compound 3.16 µM, first compound 0.000949 µM
[20] = second compound 3.16 µM, first compound 0.003 µM
[21] = second compound 3.16 µM, first compound 0.00949 µM
[22] = second compound 3.16 µM, first compound 0.03 µM
[23] = second compound 3.16 µM, first compound 0.0949 µM
[24] = second compound 3.16 µM, first compound 0.3 µM
[25] = second compound 10 µM, first compound 0.000949 µM
[26] = second compound 10 µM, first compound 0.003 µM
[27] = second compound 10 µM, first compound 0.00949 µM
[28] = second compound 10 µM, first compound 0.03 µM
[29] = second compound 10 µM, first compound 0.0949 µM
[30] = second compound 10 µM, first compound 0.3 µM
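Further: spheroids exposed to agents for seven days before viability read.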

CC(C)CC(NC(=O)C(Cc1ccccc1)NC(=O)c1cnccn1)B(O)O (stereo not given) + CC(CO)NC(=O)c1cc(-c2ccc(Cl)cc2)nn(-c2cnn(C)c2)c1=O
IC50 (second compound 0.1 µM): 1.78 nM | IC50 (second compound 0.316 µM): 1.69 nM | IC50 (second compound 1 µM): 1.75 nM | IC50 (second compound 3.16 µM): 1.4 nM | IC50 (second compound 10 µM): 1.37 nM | viability, T/C [1]: 89% | viability, T/C [2]: 18.1% | viability, T/C [3]: 0.1% | viability, T/C [4]: 0.06% | viability, T/C [5]: 0.07% | viability, T/C [6]: 0.21% | viability, T/C [7]: 85.8% | viability, T/C [8]: 14.3% | viability, T/C [9]: 0.09% | viability, T/C [10]: 0.06% | viability, T/C [11]: 0.07% | viability, T/C [12]: 0.16% | viability, T/C [13]: 86.2% | viability, T/C [14]: 18.1% | viability, T/C [15]: 0.13% | viability, T/C [16]: 0.12% | viability, T/C [17]: 0.05% | viability, T/C [18]: 0.17% | viability, T/C [19]: 69.1% | viability, T/C [20]: 13.6% | viability, T/C [21]: 0.13% | viability, T/C [22]: 0.07% | viability, T/C [23]: 0.07% | viability, T/C [24]: 0.17% | viability, T/C [25]: 67.1% | viability, T/C [26]: 14.8% | viability, T/C [27]: 0.23% | viability, T/C [28]: 0.2% | viability, T/C [29]: 0.2% | viability, T/C [30]: 0.32%

CCc1c2c(nc3ccc(O)cc13)-c1cc3c(c(=O)n1C2)COC(=O)[C@]3(O)CC + CC(CO)NC(=O)c1cc(-c2ccc(Cl)cc2)nn(-c2cnn(C)c2)c1=O
IC50 (second compound 0.1 µM): < 0.949 nM | IC50 (second compound 0.316 µM): < 0.949 nM | IC50 (second compound 1 µM): < 0.949 nM | IC50 (second compound 3.16 µM): < 0.949 nM | IC50 (second compound 10 µM): < 0.949 nM | viability, T/C [1]: 41.3% | viability, T/C [2]: 28.7% | viability, T/C [3]: 15.3% | viability, T/C [4]: 17.3% | viability, T/C [5]: 17.4% | viability, T/C [6]: 15.9% | viability, T/C [7]: 37.5% | viability, T/C [8]: 31% | viability, T/C [9]: 17.1% | viability, T/C [10]: 16.9% | viability, T/C [11]: 15.8% | viability, T/C [12]: 18.6% | viability, T/C [13]: 43.3% | viability, T/C [14]: 29% | viability, T/C [15]: 19.6% | viability, T/C [16]: 15.5% | viability, T/C [17]: 16.1% | viability, T/C [18]: 15.3% | viability, T/C [19]: 34% | viability, T/C [20]: 28.9% | viability, T/C [21]: 18.9% | viability, T/C [22]: 14.5% | viability, T/C [23]: 14.6% | viability, T/C [24]: 13.8% | viability, T/C [25]: 36.3% | viability, T/C [26]: 31.8% | viability, T/C [27]: 24.4% | viability, T/C [28]: 17.1% | viability, T/C [29]: 18.6% | viability, T/C [30]: 17%

Reference: PubChem BioAssay AID1918995 (Molecular Pharmacology Branch, DTP, NCI, 2023)
